Assay results: patent US20040224958A1, “Pyridopyrimidinone derivatives for treatment of neurodegenerative disease” (priority 2000, published 2004)
Read-outs that look alike come from different tables or passages of the source.

Experiments:
cdc2/cyclinB = cdc2/cyclinB (Homo sapiens, UniProt P06493); test: Cyclin-Dependent Kinase Assay cdc2/cyclinB
cdk2/cyclinE = cdk2/cyclinE (Homo sapiens, UniProt P24941); test: Cyclin-Dependent Kinase Assay cdk2/cyclinE
cdk4/D = cdk4/D (Homo sapiens, UniProt P11802); test: Cyclin-Dependent Kinase 4 (cdk4) Assay; assay type: biochemical; conditions: read-out: cdk4/D IC50
cdk4/D, sequence (P11802 whole entry): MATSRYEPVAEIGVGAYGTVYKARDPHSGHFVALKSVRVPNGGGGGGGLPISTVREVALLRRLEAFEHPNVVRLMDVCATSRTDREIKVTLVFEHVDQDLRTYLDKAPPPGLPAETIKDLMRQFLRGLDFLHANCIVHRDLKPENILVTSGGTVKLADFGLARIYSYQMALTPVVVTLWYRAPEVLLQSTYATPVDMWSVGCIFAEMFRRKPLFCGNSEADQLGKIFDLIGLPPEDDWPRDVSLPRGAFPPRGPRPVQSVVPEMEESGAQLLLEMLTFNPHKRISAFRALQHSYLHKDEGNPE
cdk4/D, sequence (P24385 whole entry, further chain): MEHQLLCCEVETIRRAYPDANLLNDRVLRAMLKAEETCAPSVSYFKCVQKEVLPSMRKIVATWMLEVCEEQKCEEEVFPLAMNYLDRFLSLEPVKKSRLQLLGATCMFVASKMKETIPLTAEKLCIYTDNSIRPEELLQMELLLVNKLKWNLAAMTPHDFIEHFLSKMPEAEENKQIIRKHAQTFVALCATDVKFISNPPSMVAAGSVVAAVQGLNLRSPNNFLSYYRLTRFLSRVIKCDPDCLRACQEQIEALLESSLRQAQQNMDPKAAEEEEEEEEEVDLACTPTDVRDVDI

cdk2/cyclinA = cdk2/cyclinA (Homo sapiens, UniProt P24941); test: Cyclin-Dependent Kinase Assay cdk2/cyclinA
Cdk5/p25 = Cdk5/p25 (Homo sapiens, UniProt Q00535); test: Cyclin-Dependent Kinase 5 High Throughput Screening (cdk5-HTS) Assay; assay type: biochemical; conditions: high throughput screen
Outline: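 IC50 determined from 33P incorporation into GST-RbCOOH captured on glutathione plates and read by scintillation counting. Reaction: 1.0 μg/mL Cdk5/p25, 20 μM [γ33P]ATP, pH 7.4 Tris buffer with MgCl2 and DTT, 30 min at room temperature, stopped with EDTA.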

cdc2/cyclinB, sequence (P06493 whole entry): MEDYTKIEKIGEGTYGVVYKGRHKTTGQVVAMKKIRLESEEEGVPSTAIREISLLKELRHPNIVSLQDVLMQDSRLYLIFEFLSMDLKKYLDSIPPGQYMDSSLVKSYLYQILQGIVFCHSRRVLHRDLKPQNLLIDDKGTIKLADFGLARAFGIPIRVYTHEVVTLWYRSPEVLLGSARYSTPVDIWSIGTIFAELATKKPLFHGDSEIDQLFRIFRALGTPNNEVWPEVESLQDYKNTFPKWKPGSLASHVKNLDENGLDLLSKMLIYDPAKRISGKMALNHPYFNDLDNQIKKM
cdc2/cyclinB, sequence (P14635 whole entry, further chain): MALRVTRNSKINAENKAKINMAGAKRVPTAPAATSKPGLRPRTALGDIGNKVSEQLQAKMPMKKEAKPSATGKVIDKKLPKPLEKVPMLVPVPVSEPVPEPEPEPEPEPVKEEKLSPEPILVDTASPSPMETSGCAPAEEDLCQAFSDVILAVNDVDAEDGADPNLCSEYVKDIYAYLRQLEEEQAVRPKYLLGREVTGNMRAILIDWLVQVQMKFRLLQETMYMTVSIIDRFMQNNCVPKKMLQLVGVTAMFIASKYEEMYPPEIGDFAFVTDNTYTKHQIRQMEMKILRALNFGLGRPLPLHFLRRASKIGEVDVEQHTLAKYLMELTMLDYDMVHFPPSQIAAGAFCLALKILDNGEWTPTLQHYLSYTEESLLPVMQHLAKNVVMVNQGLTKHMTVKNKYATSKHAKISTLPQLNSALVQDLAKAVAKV

Row | Compound | melting point [°C] | IC50 (cdc2/cyclinB) [nM] | IC50 (cdk2/cyclinE; cdk2/E IC50) [nM] | IC50 (cdk4/D) [nM] | IC50 (cdk2/cyclinA; cdk2/A IC50) [nM] | IC50 (Cdk5/p25) [nM] | also measured
1 | CN(C)CCCN1CCN(c2ccc(Nc3ncc4ccc(=O)n(C5CC6CCC5C6)c4n3)cc2)CC1 (stereo not drawn) [Example 230, 8-Bicyclo[2.2.1]hept-2-yl-2-{4-[4-(3-dimethylamino-propyl)-piperazin-1-yl]-phenylamino}-8H-pyrido[2,3-d]pyrimidin-7-one] | 212 to 213 | – | – | – | – | – | –
2 | O=c1ccc2cnc(Nc3cccc(OC(F)(F)C(F)F)c3)nc2n1C1CC2CCC1C2 (stereo not drawn) [Example 213, 8-Bicyclo[2.2.1]hept-2-yl-2-[3-(1,1,2,2-tetrafluoro-ethoxy)-phenylamino]-8H-pyrido[2,3-d]pyrimidin-7-one] | 192 | – | – | – | – | – | –
3 | O=c1ccc2cnc(Nc3ccccc3)nc2n1C1CCCCCC1 [Example 155, 8-Cycloheptyl-2-phenylamino-8H-pyrido[2,3-d]pyrimidin-7-one] | 156 to 158 | – | – | – | – | – | –
4 | O=c1ccc2cnc(Nc3ccc(N4CCC(CCN5CCOCC5)CC4)cc3)nc2n1C1CC2CCC1C2 (stereo not drawn) [Example 259, 8-Bicyclo[2.2.1]hept-2-yl-2-[4-[4-(2-morpholin-4-yl-ethyl)-piperidin-1-yl]-phenylamino]-8H-pyrido[2,3-d]pyrimidin-7-one] | 223 to 224 | – | – | – | – | – | –
5 | Cn1c(=O)ccc2cnc(NCc3ccccc3)nc21 [Example 63, 2-Benzylamino-8-methyl-8H-pyrido[2,3-d]pyrimidin-7-one] | 160 to 162 | – | – | – | – | – | –
6 | Nc1ncc2ccc(=O)n(C3CCCCC3)c2n1 [Example 226, 2-Amino-8-cyclohexyl-8H-pyrido[2,3-d]pyrimidin-7-one] | 155 | – | – | – | – | – | –
7 | CC(C)n1c(=O)ccc2cnc(N)nc21 [Example 257, 2-Amino-8-isopropyl-8H-pyrido[2,3-d]pyrimidin-7-one] | 153 | – | – | – | – | – | –
8 | CC(C)(C)OC(=O)C1CCCN1c1ccc(Nc2ncc3ccc(=O)n(C4CCCCC4)c3n2)cc1 (stereo not drawn) [Example 170, 1-[4-(8-Cyclohexyl-7-oxo-7,8-dihydro-pyrido[2,3-d]pyrimidin-2-ylamino)-phenyl]-pyrrolidine-2-carboxylic acid tert-butyl ester] | 144 to 145 | – | – | – | – | – | –
9 | O=c1ccc2cnc(Nc3ccc(N4CCCCC4)cc3)nc2n1CCCOC1CCCCO1 (stereo not drawn) [Example 158] | 85 to 86 | – | – | – | – | – | –
10 | O=c1ccc2cnc(Nc3ccc(N4CCCCC4)cc3)nc2n1C1CCCCC1 [Example 142, 8-Cyclohexyl-2-(4-piperidin-1-yl-phenylamino)-8H-pyrido[2,3-d]pyrimidin-7-one] | 198 to 200 | – | – | – | – | – | –
11 | O=c1ccc2cnc(Nc3ccc(N4CCCC(O)C4)cc3)nc2n1C1CCCC1 (stereo not drawn) [Example 206, 8-Cyclopentyl-2-[4-(3-hydroxy-piperidin-1-yl)-phenylamino]-8H-pyrido[2,3-d]pyrimidin-7-one] | 178 to 179 | – | – | – | – | – | –
12 | CCN(CC)c1ccc(Nc2ncc3ccc(=O)n(CC)c3n2)cc1 [Example 78, 2-(4-Diethylamino-phenylamino)-8-ethyl-8H-pyrido[2,3-d]pyrimidin-7-one] | 108 to 109 | – | – | – | – | – | –
13 | O=c1ccc2cnc(Nc3ccc(N4CCCCC4CO)cc3)nc2n1C1CCCC1 (stereo not drawn) [Example 207, 8-Cyclopentyl-2-[4-(2-hydroxymethyl-piperidin-1-yl)-phenylamino]-8H-pyrido[2,3-d]pyrimidin-7-one] | 135 to 136 | – | – | – | – | – | –
14 | CCN(CC)CCOc1ccc(Nc2ncc3ccc(=O)n(C4CCCCC4)c3n2)cc1C [Example 150, 8-Cyclohexyl-2-[4-(2-diethylamino-ethoxy)-3-methyl-phenylamino]-8H-pyrido[2,3-d]pyrimidin-7-one] | 119 to 121 | – | – | – | – | – | –
15 | CCNc1ncc2ccc(=O)n(C)c2n1 [Example 65, 2-Ethylamino-8-methyl-8H-pyrido[2,3-d]pyrimidin-7-one] | 194 to 195 | – | – | – | – | – | –
16 | O=c1ccc2cnc(Nc3ccc(N4CCCCC4)cc3)nc2n1C1CCCC1O (stereo not drawn) [Example 242, 8-(2-Hydroxy-cyclopentyl)-2-(4-piperidin-1-yl-phenylamino)-8H-pyrido[2,3-d]pyrimidin-7-one] | 230 to 232 | – | – | – | – | – | –
17 | CN1CCN(c2ccc(Nc3ncc4ccc(=O)n(CCCOCc5ccccc5)c4n3)cc2)CC1 [Example 115, 8-(3-Benzyloxy-propyl)-2-[4-(4-methyl-piperazin-1-yl)-phenylamino]-8H-pyrido[2,3-d]pyrimidin-7-one] | 148 to 150 | – | – | – | – | – | –
18 | 2-(3-Chloro-4-iodo-phenylamino)-8-propyl-8H-pyrido[2,3-d]pyrimidin-7-one [Example 573] | – | – | – | 190 | – | 100 | IC50 (cdc2/cyclinB; read-out: cdk1/B IC50): 260 nM; IC50 (cdk2/cyclinE; read-out: cdk2/E IC50): 180 nM; IC50 (cdk2/cyclinA; read-out: cdk2/A IC50): 820 nM

Further lines, with some results ahead:

Row | melting point [°C] | IC50 (cdc2/cyclinB) [nM] | IC50 (cdk2/cyclinE; cdk2/E IC50) [nM] | IC50 (cdk4/D) [nM] | IC50 (cdk2/cyclinA; cdk2/A IC50) [nM] | IC50 (Cdk5/p25) [nM] | Compound | also measured
19 | 155 to 157 | – | – | – | – | – | O=c1ccc2cnc(Nc3ccc(N4CCCC(CN5CCOCC5)C4)cc3)nc2n1C1CC2CCC1C2 (stereo not drawn) [Example 263, 8-Bicyclo[2.2.1]hept-2-yl-2-[4-(3-morpholin-4-ylmethyl-piperidin-1-yl)-phenylamino]-8H-pyrido[2,3-d]pyrimidin-7-one] | –
20 | – | 170 | 100 | 51 | 74 | 50 | N#Cc1ccc(Nc2ncc3ccc(=O)n(C4CCCC4)c3n2)cc1 [Example 531, 4-(8-Cyclopentyl-7-oxo-7,8-dihydro-pyrido[2,3-d]pyrimidin-2-ylamino)-benzonitrile] | –
21 | – | 99 | 110 | 1200 | 290 | 27 | CCC(CC)n1c(=O)ccc2cnc(Nc3ccc4c(c3)CCC4)nc21 [Example 525, 8-(I-Ethyl-propyl)-2-(indan-5-ylamino)-8H-pyrido[2,3-d]pyrimidin-7-one] | –
22 | – | 1100 | 240 | 490 | 1100 | 290 | CCCCn1c(=O)ccc2cnc(Nc3cc([N+](=O)[O-])ccc3F)nc21 [Example 415, 8-Butyl-2-(2-fluoro-5-nitro-phenylamino)-8H-pyrido[2,3-d]pyrimidin-7-one] | –
23 | – | 590 | 240 | 450 | 555 | 133 | CCC(C)n1c(=O)ccc2cnc(Nc3ccc(O)cc3F)nc21 (stereo not drawn) [Example 451, 8-sec-Butyl-2-(2-fluoro-4-hydroxy-phenylamino)-8H-pyrido[2,3-d]pyrimidin-7-one] | –
24 | – | 480 | 230 | 250 | 160 | 76 | CC(C)n1c(=O)ccc2cnc(Nc3ccc(C#N)cc3)nc21 [Example 433, 4-(8-Isopropyl-7-oxo-7,8-dihydro-pyrido[2,3-d]pyrimidin-2-ylamino)-benzonitrile] | –
25 | – | 340 | 990 | 390 | 1000 | 86 | CCCn1c(=O)ccc2cnc(Nc3ccc(Br)c(C)c3)nc21 [Example 360, 2-(4-Bromo-3-methyl-phenylamino)-8-propyl-8H-pyrido[2,3-d]pyrimidin-7-one] | –
26 | – | 1440 | 38.7 | 165 | 126 | 39.5 | CCCn1c(=O)ccc2cnc(Nc3ccc4[nH]nnc4c3)nc21 [Example 325, 2-(1H-Benzotriazol-5-ylamino)-8-propyl-8H-pyrido[2,3-d]pyrimidin-7-one] | –
27 | – | 390 | 450 | 1800 | 430 | 180 | CCCn1c(=O)ccc2cnc(Nc3cc(F)c(F)c(F)c3)nc21 [Example 359, 8-Propyl-2-(3,4,5-trifluoro-phenylamino)-8H-pyrido[2,3-d]pyrimidin-7-one] | –
28 | – | 220 | 85 | 1100 | 470 | 84 | CCCCn1c(=O)ccc2cnc(Nc3ccc(F)c(C(F)(F)F)c3)nc21 [Example 390, 8-Butyl-2-(4-fluoro-3-trifluoromethyl-phenylamino)-8H-pyrido[2,3-d]pyrimidin-7-one] | –
29 | – | 156 | 103 | 87 | 320 | 86.5 | O=c1ccc2cnc(Nc3ccc4[nH]ccc4c3)nc2n1CC1CC1 [Example 563, 8-Cyclopropylmethyl-2-(1H-indol-5-ylamino)-8H-pyrido[2,3-d]pyrimidin-7-one] | –
30 | – | 1300 | 340 | 670 | 1700 | 260 | CCCn1c(=O)ccc2cnc(Nc3cc([N+](=O)[O-])ccc3F)nc21 [Example 333, 2-(2-Fluoro-5-nitro-phenylamino)-8-propyl-8H-pyrido[2,3-d]pyrimidin-7-one] | –
31 | – | 1650 | 1200 | 1450 | 2850 | 400 | O=c1ccc2cnc(Nc3ccccc3)nc2n1CC(F)(F)F [Example 601, 2-Phenylamino-8-(2,2,2-trifluoro-ethyl)-8H-pyrido[2,3-d]pyrimidin-7-one] | –
32 | – | 180 | 440 | 350 | 310 | 150 | CCCn1c(=O)ccc2cnc(Nc3ccc(C(F)(F)F)cc3)nc21 [Example 361, 8-Propyl-2-(4-trifluoromethyl-phenylamino)-8H-pyrido[2,3-d]pyrimidin-7-one] | –
33 | – | 36 | 16 | 290 | 14 | 55 | O=c1ccc2cnc(Nc3ccc(O)c([N+](=O)[O-])c3)nc2n1C1CCCC1 [Example 551, 8-Cyclopentyl-2-(4-hydroxy-3-nitro-phenylamino)-8H-pyrido[2,3-d]pyrimidin-7-one] | –
